Structures can show the parent of a compound that is named as a salt. Where two headings read alike, the source gives them in different places.
What was measured:
[1] = target: low affinity glucocorticoid binding site (LAGS) in rat liver microsomes (Rattus norvegicus, UniProt P70580); test: Competition with radiolabelled dexamethasone for specific binding to rat liver microsomes (LAGS activity); conditions: for IC50: vs radiolabelled dexamethasone
Protocol: A small volume of each incubation was removed to determine the total ligand concentration ([L0]) prior to removal of free unbound ligand by dextran/charcoal adsorption. […] Free ligand concentration at equilibrium was calculated by subtracting specifically bound ligand at equilibrium from the total ligand concentration (i.e. [L0] - [LRe]) and assumes receptor-ligand stoichiometry of 1:1.
In brief, rats were anaesthetized with pentobarbital and a 16G cannula inserted into the hepatic portal vein and secured. […] The liver was then excised and chopped roughly with ice-cooled TS buffer (10 mM Tris/HCl pH 7.4 containing 250 mM sucrose) and disrupted using a Potter-Elvehjem homogenisor. The resultant homogenate was then centrifuged at 12,000 g for 20 minutes at 4°C and the supernatant retained and centrifuged at 100,000 g for 60 minutes at 4°C. The resultant "microsomal" pellet was re-suspended in fresh TS buffer and re-centrifuged at 100,000 g to obtain a washed microsomal pellet. […] After overnight incubation on ice, free ligand was removed by charcoal dextran adsorption and bound radioligand determined in supernatants by liquid scintillation, essentially as previously described.

[2] = test system: human HSCs; test: Human HSC trans-differentiation/proliferation (confluence, α-sma); type: cell-based; conditions: confluence at day 12
Protocol: (§1) Figure 5 Screening for inhibitors of trans-differentiation in rat and human HSCs – Part 1. Rat HSCs were isolated and cultured for 2 days (T0) whereupon cells were treated with the indicated compound as outlined in methods section. After 9 days, cells were analyzed by Western blotting for α-smooth muscle actin (α-sma). Each lane contains 10 μg total protein/lane, results typical of at least 3 separate experiments (a). Human HSCs were treated with the indicated compound and confluence determined in randomly selected fields. Data are the mean and standard deviation confluence at day 12 of 3 separate treatment dishes from the same donor, typical of at least 3 separate donors (b).
Figure 6 Screening for inhibitors of trans-differentiation in rat and human HSCs – Part 2. Photomicrographs of human HSCs at day 12 of culture with the indicated treatment (a); levels of expression of α-smooth muscle actin (α-sma) (b) and levels of expression of fibrogenic marker mRNA transcripts in human HSCs after treatment selected compounds for 19 days. Data are the mean and standard deviation relative transcript level from 3 separate treatments on cells from the same donor, typical of at least 3 separate donors (c).
(§2) HSCs were isolated from rats (250–300 g body weight, Harlan, UK) by sequential pronase/collagenase perfusion of the liver followed by density gradient centrifugation and elutriation as previously outlined. Human HSCs were isolated by an essentially similar procedure using discarded tissue from patients undergoing a hepatectomy with patient consent and ethical approval by the Grampian Regional Ethical Committee. HSCs were seeded onto plastic culture dishes and cultured in Dulbecco's modified Eagle Medium (DMEM) containing 4.5 g/l of glucose and supplemented with 5% or 16% (v/v) fetal calf serum (for rat or human respectively), […] penicillin, 80 μg/ml streptomycin and 32 μg/ml gentamycin. Additional treatments were made by addition of compounds in an ethanol vehicle (stock solutions at 1000× final concentration). Ethanol at 0.1% (v/v) acted as control. Frequency of treatment (3 treatments per week/2 medium changes per week), as previously described.

[3] = test system: rat HSCs; test: Rat HSC-to-myofibroblast trans-differentiation (α-smooth muscle actin Western blot); type: cell-based; conditions: α-sma Western blot after 9 days of treatment
Protocol: as §1, §2

[4] = test system: CYP3A1/3A23; test: Screening for PXR activators in rat hepatocytes via CYP3A induction (Western blot); type: cell-based; conditions: 10 μM for 24 hours (PCN 20 μM), Western blot
[5] = target: T1, rPGRMC1 (Rattus norvegicus, UniProt P70580); test: Dexamethasone binding competition in COS-7 cells transfected with pSG5-rPGRMC1; conditions: unlabelled competitor, Fig. 2e
T1 construct: the full length cDNA for rPGRMC1 was cloned from rat myofibroblasts and expressed in COS-7 cells; expressed in transfected cells; host or cells: COS-7 cells transfected with pSG5-rPGRMC1
T1 sequence (P70580 whole entry): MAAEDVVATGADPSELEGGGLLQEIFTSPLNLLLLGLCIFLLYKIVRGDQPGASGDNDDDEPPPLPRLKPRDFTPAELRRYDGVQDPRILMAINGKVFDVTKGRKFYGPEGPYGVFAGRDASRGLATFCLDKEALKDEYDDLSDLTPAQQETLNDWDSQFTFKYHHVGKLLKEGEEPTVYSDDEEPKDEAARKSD
Protocol: Western blot for rPGRMC1 in various cell fractions using the anti-IZ Ab in COS-7 cells transfected with the indicated construct. All lanes were loaded with 10 μg protein/lane. Note, HC5 is a truncated form of rPGRMC1 cloned from rat kidney (a). Western blot for rPGRMC1 using the anti-IZ Ab and CYP2E1 (lower blot). Rat hepatocytes were cultured for 24 hours to allow attachment (T0) and then treated for 24 hours with the indicated ligand or ethanol vehicle prior to analysis. Each lane contains 10 μg total protein/well, typical of 3 separate experiments (b). […] The percentage of cells that stained positive for beta galactosidase activity (grey bars) was determined in situ in separate wells by examining at least 5 randomly selected low power fields. […] The percent of binding in the presence of unlabelled competitors was determined after subtraction of non-specific binding. […]
COS-7 cells were transfected at 30–50% confluency using Effectene transfection reagent (Qiagen, Southampton, UK) essentially according to the manufacturer's instructions with either pSG5 empty vector, pSG5-rPGRMC1 or the β-galactosidase-encoding pcDNA3.1e/lacZ vector (Invitrogen, Paisley, UK). Thirty hours after transfection, β-galactosidase activity was determined in fixed cells,in situ. […]

[6] = target: progesterone binding protein in pig liver microsomes; conditions: read-out: IC50% for competition for progesterone binding protein; cited from earlier work
[7] = test system: CYP3A4; test: Screening for PXR activators in human hepatocytes via CYP3A induction (Western blot); type: cell-based; conditions: 24 hours treatment, Western blot
[8] = test system: human myofibroblasts; test: Fibrogenic marker mRNA transcripts (TGFβ, TIMP1, collagen 1A1) in human myofibroblasts, qRT-PCR; type: cell-based; conditions: treatment for 19 days
Description: Quantitative transcript expression was examined after reverse transcription (using a Taqman reverse transcription kit (Applied Biosystems)) using a PE Applied Biosystems ABI7700 and PE Applied Biosystems Gene Expression Assay™, incorporating sequence-specific forward, reverse and fluorescently labelled probes (see Table 2).

[9] = read-out: IC50% (competition of substituted progestins for binding to rat liver microsomes), Additional file 1
[10] = read-out: IC50% (competition of dexamethasone derivatives for binding to rat liver microsomes), Additional file 2

low affinity glucocorticoid binding site (LAGS) in rat liver microsomes, sequence (P70580 2-195): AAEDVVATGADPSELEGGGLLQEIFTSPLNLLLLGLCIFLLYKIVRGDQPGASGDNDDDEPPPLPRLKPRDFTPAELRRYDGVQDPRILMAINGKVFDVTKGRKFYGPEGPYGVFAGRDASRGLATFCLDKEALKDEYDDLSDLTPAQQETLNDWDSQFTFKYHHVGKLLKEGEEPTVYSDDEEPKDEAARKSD

CCOC(=O)[C@H]1CC[C@H]2[C@@H]3CCC4=CC(=O)CC[C@]4(C)[C@H]3CC[C@]12C [4 androstene-3-one 17β-carboxylic acid ethyl ester]
IC50 [1, 9]: 0.1 µM

CC(=O)O[C@@H]1C=C2CC[C@H]3[C@@H]4CC[C@H](C(C)=O)[C@@]4(C)CC[C@@H]3[C@@]2(C)CC1 [4 pregnene-3β-ol-20-one acetate]
IC50 [1, 9]: 0.5 µM

CC(=NOCC(=O)O)[C@H]1CC[C@H]2[C@@H]3CCC4=C[C@@H](O)CC[C@]4(C)[C@H]3CC[C@]12C [4 pregnene-3β-ol-20-one carboxymethyloxime]
IC50 [1, 9]: > 100 µM

CC(=O)[C@H]1CC[C@H]2[C@@H]3CCC4=C[C@@H](O)CC[C@]4(C)[C@H]3CC[C@]12C [4 pregnene-3β-ol-20-one]
IC50 [1, 9]: 0.5 µM

CC(=O)[C@H]1CC[C@H]2[C@@H]3C[C@@H](O)C4=CC(=O)CC[C@]4(C)[C@H]3CC[C@]12C [6α-hydroxyprogesterone]
IC50 [1, 9]: 5 µM

CC(=O)[C@H]1CC[C@H]2[C@@H]3C[C@@H](O)C4=CC(=O)CC[C@]4(C)[C@H]3CC[C@]12C [6β-hydroxyprogesterone]
IC50 [1, 9]: 10 µM

CC(=O)O[C@@H]1C[C@H]2[C@@H]3CC[C@H](C(C)=O)[C@@]3(C)CC[C@@H]2[C@@]2(C)CCC(=O)C=C12 [6β-progesterone acetate]
IC50 [1, 9]: 0.5 µM

CC(=O)[C@H]1CC[C@H]2[C@@H]3CCC4=CC(=O)CC[C@]4(C)[C@H]3[C@H](O)C[C@]12C [11α-hydroxyprogesterone]
IC50 [1, 9]: 0.1 µM

CC(=O)O[C@@H]1C[C@]2(C)[C@@H](C(C)=O)CC[C@H]2[C@@H]2CCC3=CC(=O)CC[C@]3(C)[C@H]21 [11α-progesterone acetate]
IC50 [1, 9]: 0.1 µM

CC(=O)[C@H]1CC[C@H]2[C@@H]3CCC4=CC(=O)CC[C@]4(C)[C@H]3[C@H](OS(=O)(=O)c3ccc(C)cc3)C[C@]12C [11α-progesterone tosylate]
IC50 [1, 9]: 10 µM

CC(=O)[C@H]1CC[C@H]2[C@@H]3CCC4=CC(=O)CC[C@]4(C)[C@H]3[C@@H](O)C[C@]12C [11β-hydroxyprogesterone]
inhibitory activity on human HSC trans-differentiation [2]: significant inhibitory activity

CC1CC2C3CCC4=CC(=O)C=CC4(C)C3(F)C(O)CC2(C)C1(O)C(=O)O (stereo not drawn) [17β-carboxylic acid derivative, 9α-fluoro 16α-methyl-11β,17α-dihydroxy-1,4-pregn-3-one 17-carboxylic acid]
IC50 [1, 10]: 100 µM

CC(=O)[C@H]1[C@H](C#N)C[C@H]2[C@@H]3CC=C4C[C@@H](O)CC[C@]4(C)[C@H]3CC[C@@]21C [PCN, pregnenolone 16α carbonitrile]
inhibition of rat HSC trans-differentiation [3]: inhibited
CYP2E expression in rat hepatocytes [4]: no affect
CYP3A1/3A23 expression (induction) in rat hepatocytes [4]: induced
competition with dexamethasone for binding to COS-7 cell extracts over-expressing rPGRMC1 [5]: significant competition

C[C@]12CCC(=O)C=C1CC[C@@H]1[C@@H]2CC[C@]2(C)C(=O)CC[C@@H]12 [androstenedione, reference compound]
IC50 [1, 9]: 5 µM

C[C@@H]1C[C@H]2[C@@H]3CCC4=CC(=O)C=C[C@]4(C)[C@@]3(F)[C@@H](O)C[C@]2(C)[C@@]1(O)C(=O)COS(C)(=O)=O [dexamethasone mesylate]
IC50 [1, 10]: 10 µM

C[C@@H]1C[C@H]2[C@@H]3CCC4=CC(=O)C=C[C@]4(C)[C@@]3(F)[C@@H](O)C[C@]2(C)[C@@]1(O)C(=O)CO [dexamethasone, reference compound]
IC50 [6]: > 100 µM
maximal binding site concentration ([1]; radiolabelled dexamethasone, rat liver microsomes): 8.3 pmoles/mg of microsomal protein

C[C@H]1C[C@@H]2[C@H]([C@@H](O)C[C@@]3(C)[C@H]2CC[C@]3(O)C(=O)CO)[C@@]2(C)C=CC(=O)C=C12 [methylprednisolone, reference compound]
CYP3A4 expression (induction) in human hepatocytes [7]: evidence of induction

CC(=O)[C@H]1CC[C@H]2[C@@H]3CCC4=CC(=O)CC[C@]4(C)[C@H]3CC[C@]12C [progesterone, reference compound]
inhibition of rat HSC trans-differentiation [3]: markedly inhibited
inhibitory activity on human HSC trans-differentiation [2]: significant inhibitory activity
competition for dexamethasone binding to rat liver microsomes (in words) ([1]; rat liver microsomes): competed

CO[C@H]1/C=C/O[C@@]2(C)Oc3c(C)c(O)c4c(O)c(c(/C=N/N5CCN(C)CC5)c(O)c4c3C2=O)NC(=O)/C(C)=C\C=C\[C@H](C)[C@H](O)[C@@H](C)[C@@H](O)[C@@H](C)[C@H](OC(C)=O)[C@@H]1C [rifampicin, reference compound]
expression of TGFβ, TIMP1 and collagen 1A1 mRNAs in human myofibroblasts [8]: inhibited the expression of all mRNAs
inhibitory activity on human HSC trans-differentiation [2]: significant inhibitory activity

CCC(=O)O[C@H]1CC[C@H]2[C@@H]3CCC4=CC(=O)CC[C@]4(C)[C@H]3CC[C@]12C [testosterone proprionate, reference compound]
IC50 [1, 9]: 10 µM

biotinylated dexamethasone
IC50 [1, 10]: > 100 µM
